Measured values: ChEMBL document CHEMBL3639243, “Oxadiazole derivative having endothelial lipase inhibitory activity” (2014)

Target: T1, Endothelial lipase (Homo sapiens, UniProt Q9Y5X9)
T1 sequence (Q9Y5X9 whole entry): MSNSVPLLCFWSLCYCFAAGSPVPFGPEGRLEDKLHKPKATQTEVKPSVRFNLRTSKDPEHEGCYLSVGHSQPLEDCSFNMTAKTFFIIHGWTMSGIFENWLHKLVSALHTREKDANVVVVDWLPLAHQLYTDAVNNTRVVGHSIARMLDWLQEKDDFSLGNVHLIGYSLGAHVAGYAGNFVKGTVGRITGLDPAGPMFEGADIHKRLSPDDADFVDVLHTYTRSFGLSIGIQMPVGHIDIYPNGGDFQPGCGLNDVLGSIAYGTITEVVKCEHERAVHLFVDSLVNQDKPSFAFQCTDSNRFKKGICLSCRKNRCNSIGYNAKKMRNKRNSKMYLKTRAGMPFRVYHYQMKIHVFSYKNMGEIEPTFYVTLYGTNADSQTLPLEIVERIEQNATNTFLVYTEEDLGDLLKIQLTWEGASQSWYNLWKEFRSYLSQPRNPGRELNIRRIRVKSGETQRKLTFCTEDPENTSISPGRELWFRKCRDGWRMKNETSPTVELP
Experiment: Inhibition Assay: After the present compound dissolved in DMSO was added to become 0.5% DMSO to the reaction buffer consisting of 20 mM tris hydrochloric acid (pH7.4), bovine serum albumin (0.5%), calcium chloride (4 mM), sodium chloride (150 mM) and human HDL (2 mg/ml), the EL enzyme was added (total volume was 20 μl). After 4-hour reaction at 37 C., non-esterified fatty acid (NEFA) generated from HDL by EL was measured with a commercially available assay kit and the amount of NEFA was used as an index of enzyme activity. Considering the enzyme activity without the inhibitor as a control value, the inhibition rate of each concentration of the present compound was calculated, and 50% inhibitory concentration (IC50 value) was calculated from an inhibition curve.

IC50: 14 nM
SMILES: N#CC1(NC(=O)Cc2nnc(Cc3nc4ccc(-c5ccc(Cl)s5)c(F)c4s3)o2)CC1
